Reference: patent publication US20230265151A1, “GIP/GLP1 CO-AGONIST COMPOUNDS” (priority 2020, published 2023)
Like-named read-outs stand apart in the source and are kept apart here.

How the values were obtained:
[1] = target: T1, human GLP-1 receptor (hGLP-1R) (Homo sapiens, UniProt P43220); assay: [125I]-GLP-1 binding, SPA with membranes of HEK293 cells expressing hGLP-1R
T1 construct: expressed in transfected cells; crude membranes

[2] = target: T2, hGIPR (Homo sapiens, UniProt P48546); assay: Functional cAMP formation (HTRF) in HEK-293 clonal cells expressing hGIPR, 0.1% bovine casein, without or with 1.0% human serum albumin; assay type: cell-based; settings: for EC50: geometric mean
T2 construct: expressed in transfected cells
T2 sequence (P48546 22-466): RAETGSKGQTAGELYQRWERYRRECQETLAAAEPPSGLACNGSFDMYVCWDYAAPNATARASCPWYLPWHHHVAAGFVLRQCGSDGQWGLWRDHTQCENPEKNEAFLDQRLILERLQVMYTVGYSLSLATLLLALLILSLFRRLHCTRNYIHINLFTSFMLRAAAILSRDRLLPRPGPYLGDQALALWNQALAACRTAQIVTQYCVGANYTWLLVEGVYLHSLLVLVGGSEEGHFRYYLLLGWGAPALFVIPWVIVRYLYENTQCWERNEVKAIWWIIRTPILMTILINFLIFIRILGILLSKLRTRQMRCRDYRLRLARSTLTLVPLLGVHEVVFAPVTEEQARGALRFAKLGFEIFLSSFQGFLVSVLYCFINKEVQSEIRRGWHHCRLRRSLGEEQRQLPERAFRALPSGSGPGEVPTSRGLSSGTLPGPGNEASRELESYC
Outline: (§1)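 Cells were stimulated with peptide for 30 min at 37° C, then intracellular cAMP was measured by competitive HTRF (665/620 nm ratio) and converted to nM using a cAMP standard curve. Relative EC50 and Emax came from four-parameter logistic fits of percent maximal response against peptide concentration.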

[3] = target: T3, hGCGR (Homo sapiens, UniProt P47871); assay: Functional cAMP formation (HTRF) in HEK-293 clonal cells expressing hGCGR, 0.1% bovine casein, without or with 1.0% human serum albumin; assay type: cell-based
T3 construct: expressed in transfected cells
T3 sequence (P47871 26-477): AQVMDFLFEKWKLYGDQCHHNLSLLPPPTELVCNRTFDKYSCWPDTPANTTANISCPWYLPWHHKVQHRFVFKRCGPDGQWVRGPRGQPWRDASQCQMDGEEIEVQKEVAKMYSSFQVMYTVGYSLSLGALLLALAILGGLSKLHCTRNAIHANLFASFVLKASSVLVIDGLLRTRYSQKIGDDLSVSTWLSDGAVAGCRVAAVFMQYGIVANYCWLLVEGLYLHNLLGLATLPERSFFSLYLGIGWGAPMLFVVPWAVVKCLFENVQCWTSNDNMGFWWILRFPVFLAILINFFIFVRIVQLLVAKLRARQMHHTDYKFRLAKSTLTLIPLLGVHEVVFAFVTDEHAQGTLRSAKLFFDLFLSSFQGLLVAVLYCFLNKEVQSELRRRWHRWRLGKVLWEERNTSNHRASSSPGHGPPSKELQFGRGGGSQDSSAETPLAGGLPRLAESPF
Outline: as §1

[4] = target: hGLP-1R (Homo sapiens, UniProt P43220); assay: Functional cAMP formation (HTRF) in HEK-293 clonal cells expressing hGLP-1R, 0.1% bovine casein, without or with 1.0% human serum albumin; assay type: cell-based; design: expressed in transfected cells; settings: for EC50: geometric mean
Sequence of hGLP-1R (P43220 24-463): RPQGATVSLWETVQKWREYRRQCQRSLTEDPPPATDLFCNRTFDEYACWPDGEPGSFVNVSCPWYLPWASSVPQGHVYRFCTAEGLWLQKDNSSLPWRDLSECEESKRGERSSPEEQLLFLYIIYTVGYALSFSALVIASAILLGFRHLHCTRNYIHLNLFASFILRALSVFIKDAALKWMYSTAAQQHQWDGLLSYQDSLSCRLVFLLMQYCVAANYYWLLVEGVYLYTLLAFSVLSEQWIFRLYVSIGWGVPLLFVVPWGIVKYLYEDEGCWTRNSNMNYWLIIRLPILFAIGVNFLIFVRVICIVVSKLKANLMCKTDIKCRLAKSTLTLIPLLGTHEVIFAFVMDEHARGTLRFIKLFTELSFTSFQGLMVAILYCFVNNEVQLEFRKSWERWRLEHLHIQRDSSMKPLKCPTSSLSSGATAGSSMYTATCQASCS
Outline: as §1

[5] = human GLP-1R, geometric mean (SEM, n), read-out: Binding Affinity Ki, nM (SEM, n) hGLP-1R
[6] = 0.1% bovine casein and 1.0% human serum albumin, 37° C., read-out: hGIPR EC50, nM (SEM, n)
[7] = HEK293, 0.1% bovine casein and 1.0% human serum albumin, 37° C., percent of maximal response to GIP(1-42)NH2, read-out: hGIPR Emax, % ± SEM
[8] = 0.1% bovine casein and 1.0% human serum albumin, 37° C., geometric mean, read-out: hGCGR EC50, nM (SEM, n)
[9] = cAMP, incubated at 37° C., 0.1% bovine casein (no human serum albumin), geometric mean, read-out: hGCGR EC50, nM (SEM, n)
[10] = 0.1% bovine casein and 1.0% human serum albumin, 37° C., read-out: hGLP-1R EC50, nM (SEM, n)

T1 sequence (P43220 24-463): as above

Q: Which results are given for `CC[C@H](C)[C@H](NC(=O)[C@H](CC(C)C)NC(=O)[C@](C)(Cc1ccc(O)cc1)NC(=O)[C@@H](CCC(=O)O)NC(=O)[C@@H](NC(=O)[C@H](Cc1ccccc1)NC(=O)[C@H](CCC(=O)O)NC(=O)C(C)(C)NC(=O)[C@H](CCC(N)=O)NC(=O)[C@H](C)NC(=O)[C@H](CCCCNC(=O)COCCOCCNC(=O)COCCOCCNC(=O)[C@@H](N)CCCCNC(=O)CCCCCCCCCCCCC(=O)O)NC(=O)[C@H](CCCN)NC(=O)[C@H](CC(=O)O)NC(=O)[C@H](CC(C)C)NC(=O)[C@](C)(CC(C)C)NC(=O)[C@@H](NC(=O)[C@H](CO)NC(=O)[C@H](Cc1ccncc1)NC(=O)[C@H](CC(=O)O)NC(=O)[C@H](CO)NC(=O)[C@@H](NC(=O)[C@](C)(Cc1ccccc1F)NC(=O)[C@@H](NC(=O)CNC(=O)[C@H](CCC(=O)O)NC(=O)C(C)(C)NC(=O)[C@@H](N)Cc1ccc(O)cc1)[C@@H](C)O)[C@@H](C)O)[C@@H](C)CC)[C@@H](C)CC)C(=O)N[C@@H](CCC(=O)O)C(=O)NCC(=O)NCC(=O)N[C@@H](CCCCNC(=O)COCCOCCNC(=O)COCCOCCNC(=O)[C@@H](N)CCCCNC(=O)CCCCCCCCCCCCC(=O)O)C(=O)N[C@@H](CO)C(=O)N[C@@H](CO)C(=O)NCC(=O)N[C@@H](C)C(=O)N1CCC[C@H]1C(=O)N1CCC[C@H]1C(=O)N1CCC[C@H]1C(=O)N[C@@H](CO)C(N)=O` [Example 33]?
A: Ki [1, 5]: 1.34 nM; EC50 [2, 6]: 0.0941 nM; Emax [2, 7]: 92 ± 1.02%; Emax ([2]; HEK293, percent of maximal response to GIP(1-42)NH2, 37° C., 0.1% bovine casein, arithmetic mean, read-out: hGIPR Emax, % ± SEM): 97.6 ± 2.45%; EC50 [3, 8]: > 9950 nM; EC50 [3, 9]: > 9950 nM; EC50 [4, 10]: 4.35 nM

Q: Which Ki [1, 5] does the source give for `CCCCCCCCCCCC(=O)N[C@@H](CCC(=O)NCCOCCOCC(=O)NCCOCCOCC(=O)NCCOCCOCC(=O)NCCCC[C@H](NC(=O)[C@H](CCCN)NC(=O)[C@H](CC(=O)O)NC(=O)[C@H](CC(C)C)NC(=O)[C@](C)(CC(C)C)NC(=O)[C@@H](NC(=O)C(C)(C)NC(=O)[C@H](CCCCNC(=O)COCCOCCNC(=O)COCCOCCNC(=O)COCCOCCNC(=O)CC[C@H](NC(=O)CCCCCCCCCCC)C(=O)O)NC(=O)[C@H](CC(=O)O)NC(=O)[C@H](CO)NC(=O)[C@@H](NC(=O)[C@](C)(Cc1ccccc1F)NC(=O)[C@@H](NC(=O)CNC(=O)[C@H](CCC(=O)O)NC(=O)C(C)(C)NC(=O)[C@@H](N)Cc1ccc(O)cc1)[C@@H](C)O)[C@@H](C)O)[C@@H](C)CC)C(=O)N[C@@H](C)C(=O)N[C@@H](CCC(N)=O)C(=O)NC(C)(C)C(=O)N[C@@H](CCC(=O)O)C(=O)N[C@@](C)(Cc1ccccc1)C(=O)N[C@H](C(=O)N[C@H](CCC(=O)O)C(=O)N[C@@](C)(Cc1ccc(O)cc1)C(=O)N[C@@H](CC(C)C)C(=O)N[C@H](C(=O)N[C@@H](CCC(=O)O)C(=O)NCC(=O)NCC(=O)N1CCC[C@H]1C(=O)N[C@@H](CO)C(=O)N[C@@H](CO)C(=O)NCC(=O)N[C@@H](C)C(=O)N1CCC[C@H]1C(=O)N1CCC[C@H]1C(=O)N1CCC[C@H]1C(=O)N[C@@H](CO)C(N)=O)[C@@H](C)CC)[C@@H](C)CC)C(=O)O` [Example 436] here?
A: The Ki was 0.412 nM.

Q: And the Emax ([2]; HEK293, cAMP, 37° C., 0.1% bovine casein and 1.0% human serum albumin, percent of maximal response to GIP(1-42)NH2, read-out: hGIPR Emax, % ± SEM)?
A: The Emax was 96%.

Q: And the EC50 ([2]; cAMP, 37° C., 0.1% bovine casein (no human serum albumin), read-out: hGIPR EC50, nM (SEM, n))?
A: The EC50 was 0.00714 nM.

Q: What about the EC50 ([3]; cAMP, 37° C., 0.1% bovine casein (no human serum albumin), geometric mean, read-out: hGCGR EC50, nM (SEM, n)) of the same compound?
A: The EC50 was > 9950 nM.

Q: What about the EC50 ([3]; cAMP, 37° C., 0.1% bovine casein and 1.0% human serum albumin, geometric mean (SEM, n), read-out: hGCGR EC50, nM (SEM, n)) of the same compound?
A: The EC50 was > 9950 nM.

Q: What about the Emax ([4]; HEK293, cAMP, 37° C., 0.1% bovine casein and 1.0% human serum albumin, percent of maximal response to GLP-1(7-36)NH2, read-out: hGLP-1R Emax, % ± SEM) of the same compound?
A: Its Emax is 100%.

Q: And the Emax ([4]; HEK293, cAMP, 37° C., 0.1% bovine casein, percent of maximal response to GLP-1(7-36)NH2, arithmetic mean, read-out: hGLP-1R Emax, % ± SEM)?
A: The Emax was 98.9%.

Q: What about the EC50 ([4]; cAMP, 37° C., 0.1% bovine casein (no human serum albumin), read-out: hGLP-1R EC50, nM (SEM, n)) of the same compound?
A: Its EC50 is 0.102 nM.

Q: For `CCCCCCCCCCCCCCCC(=O)N[C@@H](CCC(=O)NCCOCCOCC(=O)NCCOCCOCC(=O)NCCCC[C@H](NC(=O)[C@H](CCCN)NC(=O)[C@H](CC(=O)O)NC(=O)[C@H](CC(C)C)NC(=O)[C@](C)(CC(C)C)NC(=O)[C@@H](NC(=O)[C@H](CO)NC(=O)[C@H](CCCCNC(=O)COCCOCCNC(=O)COCCOCCNC(=O)CC[C@H](NC(=O)CCCCCCCCCCCCCCC)C(=O)O)NC(=O)[C@H](CC(=O)O)NC(=O)[C@H](CO)NC(=O)[C@@H](NC(=O)[C@](C)(Cc1ccccc1F)NC(=O)[C@@H](NC(=O)CNC(=O)[C@H](CCC(=O)O)NC(=O)C(C)(C)NC(=O)[C@@H](N)Cc1ccc(O)cc1)[C@@H](C)O)[C@@H](C)O)[C@@H](C)CC)C(=O)N[C@@H](C)C(=O)N[C@@H](CCC(N)=O)C(=O)NC(C)(C)C(=O)N[C@@H](CCC(=O)O)C(=O)N[C@@H](Cc1ccccc1)C(=O)N[C@H](C(=O)N[C@H](CCC(=O)O)C(=O)N[C@@](C)(Cc1ccc(O)cc1)C(=O)N[C@@H](CC(C)C)C(=O)N[C@H](C(=O)N[C@@H](CCC(=O)O)C(=O)NCC(=O)NCC(=O)N1CCC[C@H]1C(=O)N[C@@H](CO)C(=O)N[C@@H](CO)C(=O)NCC(=O)N[C@@H](C)C(=O)N1CCC[C@H]1C(=O)N1CCC[C@H]1C(=O)N1CCC[C@H]1C(=O)N[C@@H](CO)C(N)=O)[C@@H](C)CC)[C@@H](C)CC)C(=O)O` [Example 29], which Ki [1, 5] is on record?
A: The Ki was 0.412 nM.

Q: And the EC50 [2, 6]?
A: Its EC50 is 0.472 nM.

Q: What about the Emax [2, 7] of the same compound?
A: Its Emax is 96.9 ± 5.32%.

Q: And the EC50 [3, 8]?
A: The EC50 was > 9950 nM.

Q: What about the EC50 [3, 9] of the same compound?
A: The EC50 was > 9950 nM.

Q: And the EC50 [4, 10]?
A: Its EC50 is 0.876 nM.

Q: What about the Emax ([4]; HEK293, percent of maximal response to GLP-1(7-36)NH2, 37° C., 0.1% bovine casein, arithmetic mean, read-out: hGLP-1R Emax, % ± SEM) of the same compound?
A: Its Emax is 100 ± 6.65%.

Q: `CC[C@H](C)[C@H](NC(=O)[C@H](CC(C)C)NC(=O)[C@](C)(Cc1ccc(O)cc1)NC(=O)[C@H](CCCCNC(=O)CCOCCOCCOCCOCCNC(=O)CC[C@H](NC(=O)CCCCCCCCCOc1ccc(C(=O)O)cc1)C(=O)O)NC(=O)[C@@H](NC(=O)[C@H](Cc1ccccc1)NC(=O)[C@H](CCCN)NC(=O)C(C)(C)NC(=O)[C@H](CCC(N)=O)NC(=O)[C@H](C)NC(=O)[C@H](CCC(N)=O)NC(=O)[C@H](CCCN)NC(=O)[C@H](CC(=O)O)NC(=O)[C@H](CC(C)C)NC(=O)[C@](C)(CC(C)C)NC(=O)[C@@H](NC(=O)C(C)(C)NC(=O)[C@H](Cc1ccncc1)NC(=O)[C@H](CC(=O)O)NC(=O)[C@H](CO)NC(=O)[C@@H](NC(=O)[C@](C)(Cc1ccccc1F)NC(=O)[C@@H](NC(=O)CNC(=O)[C@H](CCC(=O)O)NC(=O)C(C)(C)NC(=O)[C@@H](N)Cc1ccc(O)cc1)[C@@H](C)O)[C@@H](C)O)[C@@H](C)CC)[C@@H](C)CC)C(=O)N[C@@H](CCCCNC(=O)CCOCCOCCOCCOCCNC(=O)CC[C@H](NC(=O)CCCCCCCCCOc1ccc(C(=O)O)cc1)C(=O)O)C(=O)NCC(=O)NCC(=O)N1CCC[C@H]1C(=O)N[C@@H](CO)C(=O)N[C@@H](CO)C(=O)NCC(=O)N[C@@H](C)C(=O)N1CCC[C@H]1C(=O)N1CCC[C@H]1C(=O)N1CCC[C@H]1C(=O)N[C@@H](CO)C(N)=O` [Example 461] was tested. Which Ki [1] did it give?
A: The Ki was 0.14 nM.

Q: And the Emax ([2]; HEK293, read-out: hGIPR Emax, % ± SEM, cAMP, 37° C., 0.1% bovine casein and 1.0% human serum albumin, percent of maximal response to GIP(1-42)NH2)?
A: Its Emax is 98.5%.

Q: What about the Emax ([2]; HEK293, read-out: hGIPR Emax, % ± SEM, cAMP, 37° C., 0.1% bovine casein, percent of maximal response to GIP(1-42)NH2, arithmetic mean) of the same compound?
A: Its Emax is 100%.

Q: And the EC50 ([2]; hGIPR EC50, nM (SEM, n), cAMP, 37° C., 0.1% bovine casein (no human serum albumin))?
A: The EC50 was 0.0103 nM.

Q: And the EC50 ([3]; hGCGR EC50, nM (SEM, n), cAMP, 37° C., 0.1% bovine casein (no human serum albumin), geometric mean)?
A: Its EC50 is > 10100 nM.

Q: What about the EC50 ([3]; hGCGR EC50, nM (SEM, n), cAMP, 37° C., 0.1% bovine casein and 1.0% human serum albumin, geometric mean (SEM, n)) of the same compound?
A: The EC50 was > 10100 nM.

Q: And the Emax ([4]; HEK293, read-out: hGLP-1R Emax, % ± SEM, cAMP, 37° C., 0.1% bovine casein and 1.0% human serum albumin, percent of maximal response to GLP-1(7-36)NH2)?
A: The Emax was 105%.

Q: What about the EC50 ([4]; hGLP-1R EC50, nM (SEM, n), cAMP, 37° C., 0.1% bovine casein (no human serum albumin)) of the same compound?
A: The EC50 was 0.173 nM.
